# Laboratory results: ChEMBL document CHEMBL3400082, “Synthesis of 6-aryl-substituted sulfocoumarins and investigation of their carbonic anhydrase inhibitory action” (Bioorg Med Chem, 2015)
# What was measured:
# Carbonic anhydrase 1 = Carbonic anhydrase 1 (Homo sapiens, UniProt P00915); experiment: Inhibition of human cytosolic carbonic anhydrase 1 by stopped-flow CO2 hydrase assay
# Carbonic anhydrase 2 = Carbonic anhydrase 2 (Homo sapiens, UniProt P00918); experiment: Inhibition of human cytosolic carbonic anhydrase 2 by stopped-flow CO2 hydrase assay
# Carbonic anhydrase 9 = Carbonic anhydrase 9 (Homo sapiens, UniProt Q16790); experiment: Inhibition of human tumor-associated carbonic anhydrase 9 by stopped-flow CO2 hydrase assay
# Carbonic anhydrase 1, sequence (P00915 whole entry): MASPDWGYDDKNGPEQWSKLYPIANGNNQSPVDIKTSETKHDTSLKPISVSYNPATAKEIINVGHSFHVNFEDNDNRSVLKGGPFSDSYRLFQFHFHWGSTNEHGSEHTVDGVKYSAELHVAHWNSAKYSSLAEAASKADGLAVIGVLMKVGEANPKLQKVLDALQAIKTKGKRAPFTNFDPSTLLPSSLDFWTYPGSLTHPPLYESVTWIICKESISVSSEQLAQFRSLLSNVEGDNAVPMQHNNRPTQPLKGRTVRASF
Compound,Ki (Carbonic anhydrase 1),Ki (Carbonic anhydrase 2),Ki (Carbonic anhydrase 9)
CC(C)Oc1ccc(-c2ccc3c(c2)C=CS(=O)(=O)O3)cc1,> 10 µM,> 10 µM,0.0098 µM
O=S1(=O)C=Cc2cc(-c3ccc(C(F)(F)F)cc3)ccc2O1,> 10 µM,> 10 µM,0.0297 µM
O=S1(=O)C=Cc2cc(-c3cccc(C(F)(F)F)c3)ccc2O1,> 10 µM,> 10 µM,0.0098 µM
COC(=O)c1cccc(-c2ccc3c(c2)C=CS(=O)(=O)O3)c1,> 10 µM,> 10 µM,0.009 µM
O=S1(=O)C=Cc2cc(-c3ccc(Cl)c(Cl)c3)ccc2O1,> 10 µM,> 10 µM,0.0094 µM

# Next, values leading:
Ki (Carbonic anhydrase 1),Ki (Carbonic anhydrase 2),Ki (Carbonic anhydrase 9),Compound
> 10 µM,> 10 µM,0.0599 µM,O=S1(=O)C=Cc2cc(-c3ccccc3)ccc2O1
> 10 µM,> 10 µM,0.0774 µM,Cc1ccc(-c2ccc3c(c2)C=CS(=O)(=O)O3)cc1
> 10 µM,> 10 µM,0.0708 µM,Cc1ccccc1-c1ccc2c(c1)C=CS(=O)(=O)O2
> 10 µM,> 10 µM,0.0953 µM,O=S1(=O)C=Cc2cc(-c3ccc(F)cc3)ccc2O1
> 10 µM,> 10 µM,0.0103 µM,O=S1(=O)C=Cc2cc(-c3cccc(F)c3)ccc2O1
> 10 µM,> 10 µM,0.0709 µM,COc1ccc(-c2ccc3c(c2)C=CS(=O)(=O)O3)cc1
> 10 µM,> 10 µM,0.0762 µM,O=S1(=O)C=Cc2cc(-c3ccc(OC(F)(F)F)cc3)ccc2O1
> 10 µM,> 10 µM,0.0091 µM,CC(C)(C)c1ccc(-c2ccc3c(c2)C=CS(=O)(=O)O3)cc1
